Measurements reported in ChEMBL document CHEMBL1201862, “PubChem BioAssay data set” (2004).
Blank lines part the entries; values can stand above or below the compound they belong to. Active and inactive are the calls of the source.

Tests used:
[1] = target: Lysosomal acid glucosylceramidase (Homo sapiens, UniProt P04062); test: Dose response cell-based high throughput screening assay to identify enhancers of beta-glucosidase activity. [Related pubchem assays: 784 ]; assay type: functional
[2] = target: Melanin-concentrating hormone receptor 1 (Homo sapiens, UniProt Q99705); test: Fluorescence-based counterscreen for antagonists of the G-protein coupled receptor 7 (GPR7): cell-based high throughput dose response assay to identify antagonists of the melanin-concentrating hormone receptor 1 (MCHR1).; assay type: functional
Sequence of Melanin-concentrating hormone receptor 1 (Q99705 whole entry): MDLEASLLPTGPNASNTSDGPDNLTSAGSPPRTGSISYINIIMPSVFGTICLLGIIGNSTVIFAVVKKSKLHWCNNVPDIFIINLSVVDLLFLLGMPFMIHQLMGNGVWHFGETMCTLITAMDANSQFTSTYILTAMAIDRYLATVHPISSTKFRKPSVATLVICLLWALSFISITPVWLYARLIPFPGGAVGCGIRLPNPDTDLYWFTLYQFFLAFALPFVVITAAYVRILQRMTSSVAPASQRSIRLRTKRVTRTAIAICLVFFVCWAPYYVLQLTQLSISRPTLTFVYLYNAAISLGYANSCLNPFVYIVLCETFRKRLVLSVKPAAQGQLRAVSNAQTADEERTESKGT

[3] = target: Induced myeloid leukemia cell differentiation protein Mcl-1 (Homo sapiens, UniProt Q07820); test: blockers of MCL1 binding to BIM peptide – biochemical, fluorescence polarization, BIM-BH3 peptide, 1536-well, dose response (AID 2217)
Sequence of Induced myeloid leukemia cell differentiation protein Mcl-1 (Q07820 whole entry): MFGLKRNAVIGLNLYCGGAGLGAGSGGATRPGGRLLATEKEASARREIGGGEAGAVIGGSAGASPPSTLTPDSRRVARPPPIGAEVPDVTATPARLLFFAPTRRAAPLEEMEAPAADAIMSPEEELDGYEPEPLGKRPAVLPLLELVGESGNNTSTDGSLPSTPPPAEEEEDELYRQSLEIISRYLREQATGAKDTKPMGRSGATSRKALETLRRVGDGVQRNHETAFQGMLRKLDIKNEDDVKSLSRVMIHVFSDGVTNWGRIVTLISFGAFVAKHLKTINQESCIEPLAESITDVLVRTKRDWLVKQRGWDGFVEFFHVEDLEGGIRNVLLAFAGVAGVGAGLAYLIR

Aspartyl aminopeptidase = Aspartyl aminopeptidase (Plasmodium falciparum 3D7, UniProt Q8I2J3)
Sequence of Aspartyl aminopeptidase (Q8I2J3 whole entry): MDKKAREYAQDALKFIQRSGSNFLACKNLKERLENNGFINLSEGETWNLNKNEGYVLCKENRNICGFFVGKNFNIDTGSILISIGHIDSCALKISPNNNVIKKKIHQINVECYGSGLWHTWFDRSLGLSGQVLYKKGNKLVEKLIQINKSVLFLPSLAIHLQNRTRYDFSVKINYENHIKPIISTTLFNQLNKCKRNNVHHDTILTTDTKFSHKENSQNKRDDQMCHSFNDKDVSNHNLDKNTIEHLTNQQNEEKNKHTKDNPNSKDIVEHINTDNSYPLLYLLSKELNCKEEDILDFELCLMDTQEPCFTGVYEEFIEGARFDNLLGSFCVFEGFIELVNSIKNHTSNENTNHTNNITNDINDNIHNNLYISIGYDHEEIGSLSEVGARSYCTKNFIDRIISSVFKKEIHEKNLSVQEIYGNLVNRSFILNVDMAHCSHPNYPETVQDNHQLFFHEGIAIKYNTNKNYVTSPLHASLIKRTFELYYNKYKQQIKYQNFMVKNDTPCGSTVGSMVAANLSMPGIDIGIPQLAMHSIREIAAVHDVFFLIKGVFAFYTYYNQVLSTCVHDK

Procathepsin L = Procathepsin L (Homo sapiens, UniProt P07711)
Sequence of Procathepsin L (P07711 whole entry): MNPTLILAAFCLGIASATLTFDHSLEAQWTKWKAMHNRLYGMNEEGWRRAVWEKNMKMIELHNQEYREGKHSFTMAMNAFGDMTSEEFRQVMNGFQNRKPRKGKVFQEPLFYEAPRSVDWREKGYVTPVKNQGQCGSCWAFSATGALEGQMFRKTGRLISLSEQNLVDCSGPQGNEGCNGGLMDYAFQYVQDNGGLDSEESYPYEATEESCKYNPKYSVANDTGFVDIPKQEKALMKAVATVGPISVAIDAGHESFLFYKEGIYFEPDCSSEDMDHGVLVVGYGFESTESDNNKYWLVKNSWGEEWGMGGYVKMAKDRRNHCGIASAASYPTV

Bcl-2-like protein 1 = Bcl-2-like protein 1 (Homo sapiens, UniProt Q07817); test: blockers of BCLXL peptide binding – biochemical, fluorescence polarization, 1536-well, selectivity assay for MCL1 inhibitor project, dose response (AID 2218)
Sequence of Bcl-2-like protein 1 (Q07817 whole entry): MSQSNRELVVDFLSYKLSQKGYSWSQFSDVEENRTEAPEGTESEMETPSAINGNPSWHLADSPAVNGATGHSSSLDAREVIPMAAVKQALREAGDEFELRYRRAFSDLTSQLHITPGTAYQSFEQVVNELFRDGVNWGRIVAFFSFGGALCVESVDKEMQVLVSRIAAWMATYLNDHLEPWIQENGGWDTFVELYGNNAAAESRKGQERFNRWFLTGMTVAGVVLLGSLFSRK

Chaperone protein dnaK = Chaperone protein dnaK (Escherichia coli, UniProt C3TRK2); test: E. coli DnaK binders, calorimetric Kd – biophysical, isothermal titration calorimetry, beta-domain, full-length DnaK, orthogonal assay for DnaK modulator project, SAR follow-up (AID 1495)
Sequence of Chaperone protein dnaK (C3TRK2 whole entry): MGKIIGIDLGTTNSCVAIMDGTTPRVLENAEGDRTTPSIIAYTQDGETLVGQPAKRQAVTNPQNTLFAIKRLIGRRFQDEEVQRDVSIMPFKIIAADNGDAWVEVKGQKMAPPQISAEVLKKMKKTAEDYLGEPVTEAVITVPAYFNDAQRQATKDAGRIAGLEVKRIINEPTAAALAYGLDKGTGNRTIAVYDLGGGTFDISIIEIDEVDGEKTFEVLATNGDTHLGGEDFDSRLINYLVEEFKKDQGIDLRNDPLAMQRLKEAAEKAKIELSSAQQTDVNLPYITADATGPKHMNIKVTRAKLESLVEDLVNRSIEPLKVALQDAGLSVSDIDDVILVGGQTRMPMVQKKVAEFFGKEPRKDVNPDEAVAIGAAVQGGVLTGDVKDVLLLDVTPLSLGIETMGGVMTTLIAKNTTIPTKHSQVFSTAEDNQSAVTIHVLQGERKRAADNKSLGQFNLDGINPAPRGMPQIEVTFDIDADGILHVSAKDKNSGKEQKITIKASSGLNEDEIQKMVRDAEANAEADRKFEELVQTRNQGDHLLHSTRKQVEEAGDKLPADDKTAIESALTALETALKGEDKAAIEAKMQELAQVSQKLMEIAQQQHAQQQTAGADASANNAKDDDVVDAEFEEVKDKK

[4] = target: Dual specificity protein phosphatase 3 (Homo sapiens, UniProt P51452); test: inhibition constants for human DUSP3 – biochemical, colorimetric, SAR follow-up (AID 2004)
Sequence of Dual specificity protein phosphatase 3 (P51452 whole entry): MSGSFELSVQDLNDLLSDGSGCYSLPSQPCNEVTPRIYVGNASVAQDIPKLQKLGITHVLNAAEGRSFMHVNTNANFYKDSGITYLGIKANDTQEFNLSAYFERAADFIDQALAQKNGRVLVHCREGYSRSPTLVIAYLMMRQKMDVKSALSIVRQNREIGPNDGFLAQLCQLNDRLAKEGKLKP

Sequence of Lysosomal acid glucosylceramidase (P04062 whole entry): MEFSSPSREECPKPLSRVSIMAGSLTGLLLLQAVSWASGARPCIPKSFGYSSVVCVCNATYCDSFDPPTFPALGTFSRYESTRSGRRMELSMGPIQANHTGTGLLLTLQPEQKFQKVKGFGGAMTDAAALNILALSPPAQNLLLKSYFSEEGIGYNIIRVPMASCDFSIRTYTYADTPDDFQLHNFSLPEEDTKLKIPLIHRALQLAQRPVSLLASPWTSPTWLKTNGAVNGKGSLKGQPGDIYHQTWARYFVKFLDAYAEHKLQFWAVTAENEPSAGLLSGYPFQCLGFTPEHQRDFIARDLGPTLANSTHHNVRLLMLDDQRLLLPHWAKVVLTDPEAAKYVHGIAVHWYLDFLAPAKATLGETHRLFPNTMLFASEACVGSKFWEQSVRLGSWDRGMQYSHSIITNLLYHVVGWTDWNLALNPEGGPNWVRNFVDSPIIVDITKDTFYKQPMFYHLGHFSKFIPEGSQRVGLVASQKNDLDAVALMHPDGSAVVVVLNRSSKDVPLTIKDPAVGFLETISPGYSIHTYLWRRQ

EC50 [1]: > 10 µM (not active)
SMILES: O=C(O)c1ccc2c(c1)C(c1ccccc1)OC2=O (stereo not drawn)

IC50 [2]: > 14.6 µM (not active)
SMILES: CCN1CCN(C(=O)c2ccc3c(c2)N(Cc2ccc(C)cc2)CCS3)CC1

IC50 [3]: 18.1 µM (not active) | IC50 (Aspartyl aminopeptidase): 4.68 µM (active) | IC50 (Procathepsin L): > 59.6 µM (not active) | IC50 (Bcl-2-like protein 1): > 109 µM (not active)
SMILES: CC(C)n1c(SCC(=O)Nc2nncs2)nnc1-c1ccco1

SMILES: O=C(NCc1cccc2ccccc12)c1cccs1
Kd (Chaperone protein dnaK): 1.7 µM (active)

SMILES: NC(=O)c1c(N)sc2c1CCCCCCCCCC2
Ki [4]: 39.8 µM (inactive)
